# Values of other authors as cited in publication PMC7886095 (Drug Design, Development and Therapy, 2021).
compound,measurement,value
"COc1cc(O)c2c(=O)cc(-c3ccc(O)cc3)oc2c1 [GKA, Genkwanin]",aqueous solubility,< 1 µg/mL
